The numbers were not newly measured in patent US20040039036A1, “Water-soluble liquid internal medicine” (priority 2000, published 2004), which cites them from elsewhere.

For the data set the following is noted: JP-A-11-193233 injectable solution, famotidine 1 mg/mL; after preservation at 40° C. for 2 months.

Take `NC(N)=Nc1nc(CSCCC(N)=NS(N)(=O)=O)cs1` [famotidine]: the residual rate is recorded as 96.6%.
